{"source": "patent US20050038118A1", "about": "“Treatment” (priority 2003, published 2005)", "key": {"[1]": {"system": "human Rhinovirus (HRV)", "test": "In vivo Study II: human volunteers pre-treated with CLA, intranasal human Rhinovirus challenge, Jackson Score", "method": "The following protocol was used in all of Examples 4 to 10.\n76 human volunteers suffering from the common cold were used in the study. 43 subjects were administered conjugated linoleic acid (CLA) and the other 33 subjects were given a placebo. The CLA used contained a 40:60 mixture of cis9, trans11: trans10, cis12 isomers.\nThe 43 subjects underwent pre-treatment with CLA at a level of 2 g/day for 4 weeks. 33 subjects underwent pre-treatment with placebo (HOSF; high oleic sunflower […]).\n(§1) All subjects were inoculated at day 0 by intranasal exposure to human Rhinovirus (HRV) and the two groups were monitored daily for the next 5 days. The effects of the two types of treatment were determined by using the Jackson Score (validated in severity of symptoms) and the effects of the symptoms on its own on day 0-5.\nSymptoms were assessed using a Jackson Score validated in severity from 0=absent to 3=very severe."}, "[2]": {"system": "human Rhinovirus (HRV)", "test": "In vivo study: human volunteers pre-treated with CLA, intranasal human Rhinovirus challenge, Jackson Score", "conditions": "CLA 1.7 g/day for 4 weeks pre-treatment", "method": "45 human volunteers suffering from the common cold were used in the study. 21 subjects were administered conjugated linoleic acid (CLA) and the other 24 subjects were given a placebo.\nThe 21 subjects underwent pre-treatment with CLA at a level of 1.7 g/day for 4 weeks. 24 subjects underwent pre-treatment with placebo (HOSF; high oleic sunflower […]).\nas §1\nSymptoms were assessed using a Jackson Score validated in severity from 0=absent to 3=very severe. The following symptoms were rated:\nThe primary endpoint for the study was the frequency of clinical colds defined in accordance with the modified Jackson criteria.\nTotal symptoms of the individuals were checked in the morning (am) and in the afternoon (pm). The results of the test in the afternoon are shown in FIG. 2 and the results of the test in the morning are shown in FIG. 3; both plots are of Total Symptom Score against number of days. In FIGS. 2 and 3, results for the group of people treated with CLA are shown on the left in grey (Series 1) and for people given the placebo are shown on the right in dark grey (Series 2).\nThe symptoms assessed were sneezing, runny nose, obstruction, stuffiness, sore throat, cough, headache, malaise and chilliness. The total symptom score was determined by adding the scores for the symptoms during the 5 day period. FIG. 4 is a graph showing total symptom score and individual symptoms for the CLA group (light grey bars) and the placebo group (dark grey bars)."}, "[3]": {"conditions": "CLA 2 g/day for 4 weeks pre-treatment"}}}
{"substance": "conjugated linoleic acid [CLA]", "values": [{"measurement": "reduction in Jackson cold severity versus placebo", "setting": "[1]; [3]", "result": "about 12%"}, {"measurement": "reduction in total Jackson score over 5 days versus placebo", "setting": "[1]; [3]", "result": "about 7%"}, {"measurement": "average total Jackson score over 5 days", "setting": "[1]; CLA 2 g/day for 4 weeks pre-treatment, AM and PM, five days post inoculation, placebo 9.30", "result": 8.72}, {"measurement": "total runny nose score in 5 days", "setting": "[1]; CLA 2 g/day for 4 weeks pre-treatment, ranking 1-3, AM and PM, five days, placebo 2.14", "result": 2.025}, {"measurement": "total sneezing score in 5 days", "setting": "[1]; CLA 2 g/day for 4 weeks pre-treatment, ranking 1 to 3, AM and PM, five days, placebo 1.2", "result": 0.5}, {"measurement": "total sore throat score for 5 days", "setting": "[1]; CLA 2 g/day for 4 weeks pre-treatment, ranking 1 to 3, AM and PM, five days, placebo 3.1", "result": 2.5}, {"measurement": "total symptom score over 5 days", "setting": "[1]; CLA 2 g/day for 4 weeks pre-treatment, sum of symptom scores during 5 day period, placebo 12.1", "result": 11.3}, {"measurement": "Jackson cold severity, average score", "setting": "[1]; CLA 2 g/day for 4 weeks pre-treatment, total score (from 10), AM and PM, five days post inoculation, placebo 1.09", "result": 0.975}, {"measurement": "volunteers not infected", "setting": "[1]; CLA (40:60 cis9,trans11:trans10,cis12) 2 g/day for 4 weeks pre-treatment, all placebo volunteers infected", "result": "Seven out of the 43"}, {"measurement": "severity of the common cold (Jackson Score) versus placebo", "setting": "[2]; at day 2 after HRV inoculation, FIG. 1", "result": "lower"}, {"measurement": "total symptom score (am and pm) versus placebo", "setting": "[2]; day 2 until the end of the study, FIGS. 2 and 3", "result": "lower"}, {"measurement": "severity of the symptoms assessed separately versus placebo", "setting": "[2]; scores added over 5 day period, FIG. 4", "result": "very clearly lower"}]}
